Test results reported in patent US11883381B2, “ASH1L inhibitors and methods of treatment therewith” (The Regents of the University of Michigan, priority 2016, dated 2024).

Legend:
[1] = target: T1, ASH1L SET-BAH construct (amino acids 2069-2833) (Homo sapiens, UniProt Q9NR48); experiment: ASH1L histone methyltransferase assay (KMTase assay); type: biochemical; settings: Table 6 section headings give the IC50 class; assay not given
T1 construct: ASH1L SET-BAH construct (amino acids 2069-2833) at 0.25 μM was incubated with 0.7 μM SAM; MOCR fusion (TEV-cleavable); made in house; host or cells: E. coli BL21(DE3) T1R
Method: ASH1L Histone Methyltransferase Assay (KMTase Assay)
The reactions were stopped by spotting 5 μL of the reaction mixture on P81 cellulose squares (Reaction Biology). The P81 squares were dried for 45 min and washed five times with 50 mM sodium bicarbonate (pH 9.0), 10 min per wash. The P81 squares were then dried for 1 h, added to 10 mL of Ultima Gold scintillation cocktail (PerkinElmer), and analyzed using a Beckman scintillation counter.

[2] = system: MLL fusion target genes (Hoxa cluster, Meis1) in MLL-AF9 cells; experiment: Quantitative RT-PCR of MLL fusion target genes, MLL-AF9 cells; type: cell-based, mouse; settings: for Expression of MLL fusion target genes (Hoxa cluster, Meis1): MLL-AF9 cells, normalized to β-actin
Method: (§1) Total RNA was extracted from cells using the RNeasy mini kit (QIAGEN), and then 100-2000 ng of total RNA was reverse transcribed using the High Capacity cDNA Reverse Transcription Kit (Applied Biosystems) according to the manufacturer's protocol. Real-time PCR was performed using a CFX96 Real-Time PCR Detection System (Biorad). TaqMan Gene Expression Master Mix and TaqMan Gene Expression Assays for mouse Gapdh (Mm99999915), mouse Ash1l (Mm00467322), mouse Hoxa7 (Mm00657963), mouse Hoxa9 (Mm00439364), mouse Hoxa10 (Mm00433966), mouse Meis1 (Mm00487664), and mouse B-actin (Mm00607939) were purchased from Thermo Fisher. Relative quantification of each gene transcript was carried out using the ΔΔCt method as described in the Biorad Real-Time PCR Applications Guide.

[3] = system: Hoxa cluster, Meis1 genes in control cell line HM-2; experiment: Quantitative RT-PCR of MLL fusion target genes, HM-2 control cell line; type: cell-based, mouse; settings: normalized to β-actin
Method: as §1

[4] = system: murine bone marrow cells transformed with MLL-AF9 (MA9); experiment: Cell viability (MTT) assay, MLL-AF9 transformed murine bone marrow cells; type: cell-based; settings: 8 days of treatment
Method: (§2) MA9 (MLL-AF9 transformed), HM2 (Hoxa9/Meis1 transformed) murine bone marrow cells (BMC), MV4;11 and MOL13 human leukemia cells were plated at 1×10^5 cells/ml in 24-well plates, treated with 0.25% DMSO or compounds and cultured at 37° C. for 12 days. Every four days, the volume corresponding to 1×10^5 cells of DMSO-treated cells was spun down and resuspended in fresh media with fresh compound. At day 0 and each four day interval, 100 μl aliquots of the cell suspension were transferred to 96-well plates in quadruplicates. The quadruplicate samples were incubated for 4 days at 37° C., and then an MTT cell proliferation assay kit (Roche) was used to measure viable cells. Absorbance was read at 570 nm using a PHERAstar (BMG) microplate reader.

MLL-AF9 cells = experiment: Differentiation (cytospin/Wright-Giemsa staining), MLL-AF9 cells; type: cell-based, mouse
Method: Cytospin/Wrigtht-Giemsa Staining
1×10^5 MA9 mouse BMCs treated with compounds were harvested and placed in a Shandon EZ Single Cytofunnel (Thermo Fisher). Samples were centrifuged at 600 rpm for 5 min. The slides were air dried before staining with a Hema-3 kit (Thermo Fisher).

[5] = system: MOLM13 cells expressing MLL-AF9; experiment: Cell viability (MTT) assay, MOLM13 cells; type: cell-based, human; settings: 4 days of treatment
Method: as §2

[6] = system: MV4;11 cells (expressing MLL-AF4); experiment: Cell viability (MTT) assay, MV4;11 cells; type: cell-based, human; settings: 4 days of treatment
Method: as §2

[7] = system: HM-2 (Hoxa9/Meis1) negative control cell line; experiment: Differentiation, HM-2 control cell line; type: cell-based, murine; settings: negative control cell line HM-2
[8] = system: human acute leukemia cells with various MLL translocations; experiment: Cell proliferation in a panel of human acute leukemia cells; type: cell-based
Method: as §2

ASH1L = target: T2, ASH1L (Homo sapiens, UniProt Q9NR48); experiment: ASH1L degradation in HeLa cells; type: cell-based; settings: 0.05-50 μM
T2 construct: endogenous in cells; host or cells: HeLa

IC50 [1] [µM]	Structure (SMILES)	also measured
> 100	NC(=S)c1cccc(-c2cccc3[nH]ccc23)c1 [Compound 34]	
> 100	NC(=S)c1ccc(O)c(-c2cccc3[nH]ncc23)c1 [Compound 35]	
20 to 100	NC(=S)c1cccc(-c2c[nH]c3ccccc23)c1 [Compound 89]	
< 20	CC(=O)Nc1ccc2c(-c3cccc(C(N)=S)c3)cn(CC(CF)CF)c2c1 [Compound 136]	
< 20	NC(=S)c1cccc(-c2cn(CC(CF)CF)c3cc(NC(=O)c4cc[nH]c4)ccc23)c1 [Compound 137]	
< 20	NC(=S)c1cccc(-c2cn(C(C(F)(F)F)C(F)(F)F)c3cc(CO)ccc23)c1 [Compound 207]	
< 20	NC(=S)c1cccc(-c2cn(-c3ccc[nH]3)c3cc(CO)ccc23)c1 [Compound 220]	

Further lines, the molecule ahead of its results:

Structure (SMILES)	IC50 [1] [µM]	also measured
NC(=S)c1cccc(-c2c[nH]c3ccc(O)cc23)c1 [Compound 69]		Expression of MLL fusion target genes (Hoxa cluster, Meis1) [2]: does not affect gene expression; Expression of MLL fusion target genes (Hoxa cluster, Meis1) [3]: does not affect gene expression
NC(=S)c1cccc(-c2cn(CCCC(F)(F)F)c3cc(CNCc4ccccc4)ccc23)c1 [Compound 120]	< 20	
NC(=S)c1cccc(-c2cn(CC(CF)CF)c3cc(N)ccc23)c1 [Compound 126, 3-(6-amino-1-(3-fluoro-2-(fluoromethyl)propyl)-1H-indol-3-yl)benzothioamide]		Expression of MLL fusion target genes (Hoxa cluster, Meis1) [2]: downregulates expression; Expression of MLL fusion target genes (Hoxa cluster, Meis1) [3]: has no effect on expression; Inhibition of cell proliferation [4]: Inhibition of cell proliferation; Differentiation of cells (MLL-AF9 cells): induces differentiation; Inhibition of cell proliferation [5]: Inhibition of cell proliferation; Inhibition of cell proliferation [6]: Inhibition of cell proliferation; Differentiation of cells [7]: but not in negative control cell line HM-2
NC(=S)c1cccc(-c2cn(CC(CO)(C(F)F)C(F)F)c3cc(CO)ccc23)c1 [Compound 200]	< 20	
NC(=S)c1cccc(-c2cn(CC(CF)CF)c3cc(C(O)CC(F)(F)F)ccc23)c1 (stereo not drawn) [Compound 202]	< 20	
NC(=S)c1cccc(-c2cn(CC(CF)CF)c3cc(CNC(=O)c4cnc[nH]4)ccc23)c1 [Compound 203]	< 20	
NC(=O)NCc1ccc2c(-c3cccc(C(N)=S)c3)cn(CC(CF)CF)c2c1 [Compound 204]	< 20	
NC(=S)c1cccc(-c2cn(CC(CF)CF)c3cc(CNC(=O)CC(F)(F)F)ccc23)c1 [Compound 206]	< 20	
NC(=S)c1cccc(-c2cn(CC(CO)(C(F)F)C(F)F)c3cc(C(O)CF)ccc23)c1 (stereo not drawn) [Compound 209]	< 20	
NC(=S)c1cccc(-c2cn(CCCC(F)(F)F)c3cc(-c4ccn[nH]4)ccc23)c1 [Compound 260]		Expression of MLL fusion target genes (Hoxa9, Hoxa10 and Meis1) ([2]; MLL-AF9 transformed murine leukemia cells): downregulates expression; Cell proliferation [8]: inhibits cell proliferation
NC(=S)c1cccc(-c2cn(CC(CF)CF)c3cc(NC(=O)CCOCCOCCOCCOc4cccc5c4C(=O)N(C4CCC(=O)NC4=O)C5=O)ccc23)c1 (stereo not drawn) [Compound 301]	< 20	Degradation of ASH1L (ASH1L): Degradation of ASH1L induced
